Publication PMC11345766, “Computational Design of Pore-Forming Peptides with Potent Antimicrobial and Anticancer Activities” (Journal of Medicinal Chemistry, 2024)
Several values for one entry are separate records, joined by “and”; a condition that tells them apart may be missing. Equal entries are not always repeated. Ends that are not written are not given here.

How the values were obtained:
[1] = Calcein dye leakage assay from LUVs; assay type: biochemical; details: P:L 1:100; pH 7.4
How it was run: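 POPC:POPG (1:1) LUVs, extruded at 100 nm, loaded with 35 mM self-quenching calcein; free dye removed. Peptide 0.1 mM and LUVs 0.02 mM in PBS with 100 mM NaCl, P:L 1:100 to 1:10. Fluorescence at 495/520 nm, normalized to 100% leakage by 10% Triton X-100.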

[2] = system: E. coli (TOP10); assay: Broth microdilution antimicrobial susceptibility assay; assay type: cell-based, Escherichia coli
How it was run: (§1)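 Bacteria were grown on MHA for 24 h, subcultured in MHB for 6 h at 37 °C and diluted to 10^6 CFU/mL. Compounds were serially diluted from 50 to 0.1 μM, inoculated and incubated for 24 h at 37 °C. MIC was the lowest concentration with no visible turbidity.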

[3] = system: S. carnosus (CCM 4838T); assay: microbe, parasite or virus in culture; assay type: cell-based, Staphylococcus carnosus; details: CCM 4838, 24 h; read-out: Antimicrobial activity (MIC) S. carnosus (CCM 4838T)
How it was run: as §1

[4] = system: A. baumannii (ATCC 19606); assay: Neutropenic murine deep thigh infection model; assay type: in vivo, mouse; details: single intraperitoneal dose at 10 times the MIC; four days after treatment
Source text: Mice were euthanized 4 days postinfection (day 8).
Each experimental group comprised three mice.

[5] = system: cytoplasmic membranes of ESKAPEE pathogens; assay: Cytoplasmic membrane depolarization assay, DiSC3-(5); assay type: cell-based; details: both Gram-negative and Gram-positive bacteria; peptides at their MICs
Protocol: First, we investigated the ability of the peptides to depolarize the cytoplasmic membranes of ESKAPEE pathogens. […] Bacteria were incubated with 3,3′-dipropylthiadicarbocyanine iodide [DiSC3-(5)] dye, and the dye fluorescence was measured after peptide treatment. DiSC3-(5) is sensitive to transmembrane potential changes. It accumulates in the cytoplasmic membrane with quenched fluorescence, and when the membrane potential becomes unbalanced, the dye molecules translocate to the outside environment, resulting in increased fluorescence.[56] The three potent AMPs (LP1, LP18, and LP28) and the H-variant (LP40) depolarized the cytoplasmic membrane of both Gram-negative and Gram-positive bacteria at their MICs.
The cytoplasmic membrane depolarization activity of the peptides was determined by measuring the fluorescence of membrane-potential-sensitive dye DiSC3-(5). A. baumannii ATCC 19606, E. coli ATCC 11775, K. pneumoniae ATCC 13883, P. aeruginosa PAO1, S. aureus ATCC 12600, and E. faecium ATCC 700221 were grown to mid log phase (OD600 = 0.5) at 37 °C and then centrifuged (10,000 rpm at 4 °C for 10 min). Cells were washed twice with a buffer containing 20 mM glucose and 5 mM HEPES (pH 7.2) and diluted 1:10 (OD600 = 0.05) in a buffer with 0.1 M KCl, […], and 5 mM HEPES (pH 7.2). Fluorescence was recorded at the excitation and emission wavelengths of 622 and 670 nm, respectively. Bacterial solution (100 μL) was incubated for 15 min with 20 nM of DiSC3-(5) until fluorescence reached a plateau. Changes in transmembrane potential were monitored by observing the difference in fluorescence emission intensity after adding peptides (100 μL at their MICs) for 45 min. Assay was performed in triplicate.

[6] = system: E. faecalis JH2-2 (WT); details: E. faecalis / JH2-2 / WT / Prot. b; Prot. b
[7] = system: E. faecalis UCN41 (VAN); details: E. faecalis / UCN41 / VAN / Prot. b; Prot. b
[8] = system: P. aeruginosa K11 (IMI, MER, CTZ, PIT); details: P. aeruginosa / K11 / IMI, MER, CTZ, PIT / Prot. c; Prot. c
[9] = system: P. aeruginosa PA01 (WT); details: P. aeruginosa / PA01 / WT / Prot. d; Prot. d
[10] = system: P. aeruginosa PA14 (WT); details: P. aeruginosa / PA14 / WT / Prot. d; Prot. d
[11] = system: S. aureus ATCC 29213 (Clinical); details: S. aureus / ATCC 29213 / Clinical / Prot. c; Prot. c
[12] = system: S. aureus ATCC BAA-1556 (MET); details: S. aureus / ATCC BAA-1556 / MET / Prot. d; Prot. d

| Substance | Calcein leakage (%) from LUVs at P:L 1:100 (mol/mol) [1] | MIC ([2]; 24 h, MHB) [µM] | MIC against E. coli (TOP10) ([2]; TOP10, 24 h, pH 6) [µM] | MIC [3] [µM] | Reduction of bacterial load [4] | Depolarization of the cytoplasmic membrane [5] | MIC [6] [µM] | MIC [7] [µM] | MIC [8] [µM] | MIC [9] [µM] | MIC [10] [µM] | MIC [11] [µM] | MIC [12] [µM] | pH dependence of antimicrobial activity ([2]; pH 8 and 6) |
| --- | --- | --- | --- | --- | --- | --- | --- | --- | --- | --- | --- | --- | --- | --- |
| H-HHHHLKKILKKLFQFINQLDNQLQDIHHHH-OH [LP40] | 102.5 ± 1.2% | > 50 | 0.4 | > 50 | did not significantly reduce the bacterial load | depolarized | – | – | – | – | – | – | – | – |
| KKKKLKKILKKLFQFINQLDNQLQDIKQNK-NH2 [LP1] | 87% and 87.1 ± 2.7% | – | – | 0.8 | two to three orders of magnitude | depolarized | > 32 | > 32 | > 32 | 3.1 | 3.1 | > 32 | > 60 | – |
| KKKKLKKILKKLFQFINQLDNQLQDIKKKK-NH2 [LP18] | 93.7 ± 3.1% | – | – | 0.2 | did not significantly reduce the bacterial load | depolarized | > 32 | > 32 | 16 | 3.1 | 3.1 | > 32 | > 60 | independent of pH |
